From US6020345A, “Pyridin-2-yl-methylamine derivatives, method of preparing and application as medicine” (Pierre Fabre Medicament, priority 1996, dated 2000)
Read-outs that look alike come from different tables or passages of the source.

Experiments:
[1] = biological target: T1, D2 dopaminergic receptors (Rattus norvegicus, UniProt P61169); test: In vitro affinity for the D2 dopaminergic receptors by displacement of (^3 H) YM-09151-2; format: binding
T1 construct: rat striatum is used; from tissue; host or cells: rat striatum
T1 sequence (P61169 whole entry): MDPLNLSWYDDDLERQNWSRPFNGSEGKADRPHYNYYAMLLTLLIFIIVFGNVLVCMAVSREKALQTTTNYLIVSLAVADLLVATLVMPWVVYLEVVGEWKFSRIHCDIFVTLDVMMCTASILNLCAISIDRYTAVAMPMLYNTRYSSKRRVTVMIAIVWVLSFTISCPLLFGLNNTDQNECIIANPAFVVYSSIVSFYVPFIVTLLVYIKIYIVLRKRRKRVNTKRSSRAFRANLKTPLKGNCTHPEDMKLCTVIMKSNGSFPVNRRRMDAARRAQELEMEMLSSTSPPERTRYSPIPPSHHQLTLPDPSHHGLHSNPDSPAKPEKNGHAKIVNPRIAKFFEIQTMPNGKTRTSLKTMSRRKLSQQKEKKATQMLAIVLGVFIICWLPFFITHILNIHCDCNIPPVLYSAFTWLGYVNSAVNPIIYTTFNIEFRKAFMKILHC
Method: 2-Measurement of the affinity of the compounds of the invention for the D2 receptors
The in vitro affinity of the compounds of the invention for the D2 dopaminergic receptors was determined by measuring the displacement of (^3 H) YM-09151-2 (NET-1004 70-87 Ci/mmol). The study of binding to the D2 receptor is carried out as described by Niznik (Naunyn-Schmiedeberg's Arch. Pharmacol. Methods, 1985, 329, 333-38). For these experiments, rat striatum is used. After thawing the brain in 50 mmol Tris-HCl buffer, pH=7.40 at 25° C., the striatum is collected and homogenized in 40 volumes of buffer maintained at 4° C. The homogenate is centrifuged at 20,000 g for 10 minutes, the centrifugation pellet is suspended in the same volume of buffer and again centrifuged. The final pellet is suspended in cold 50 mmol Tris-HCl reaction buffer, pH=7.40 at 25° C. containing 120 mmol of NaCl and 5 mmol of KCl. The final concentration of tissue in the incubation medium is 2 mg/tube. The reaction tubes contain 0.20 ml of [^3 H]YM-09151-2 (0.05 mmol final), 0.20 ml of product to be tested 6-7 concentrations and 1.60 ml of tissue. Nonspecific binding is defined using 1 mmol of (+)-Butaclamol. The reaction tubes are incubated at 23° C. for 60 minutes and then their content is rapidly filtered under vacuum on Whatman GF/B filters, the tubes are rinsed twice with 5 ml of 50 mmol Tris-HCl buffer, pH=7.40 at 25° C. The radioactivity collected on the filter is analyzed by liquid scintillation by adding 4 ml of scintillation fluid (Emulsifier Safe, Packard). All the experiments are carried out in triplicate.
(§1) The inhibition constants (Ki) of the products of the invention are estimated from displacement experiments using the nonlinear regression program RADLIG version 4 from EBDA (Equilibrium Binding Data Analysis) (Biosoft, Cambridge, UK, McPherson, 1985). […] The pKi (-logKi) values are given in the form of the mean ±SEM of at least 3 experiments.

5-HT1A receptors [2] = biological target: T2, 5-HT1A receptors (Rattus norvegicus, UniProt P19327); test: In vitro affinity for the 5-HT1A receptors by displacement of (^3 H)8-OH-DPAT; format: binding; design: rat cerebral cortices are used; from tissue; host or cells: rat cerebral cortex; details: for pKi 5-HT1A: mean of at least 3 experiments, rat cerebral cortex, (^3 H)8-OH-DPAT; for 5-HT1A /D2 Selectivity: ratio of affinity constants (Ki) D2 /(Ki) 5-HT1A; for affinity for the 5-HT1A receptors (in words): in vitro
T2 sequence (P19327 1-422): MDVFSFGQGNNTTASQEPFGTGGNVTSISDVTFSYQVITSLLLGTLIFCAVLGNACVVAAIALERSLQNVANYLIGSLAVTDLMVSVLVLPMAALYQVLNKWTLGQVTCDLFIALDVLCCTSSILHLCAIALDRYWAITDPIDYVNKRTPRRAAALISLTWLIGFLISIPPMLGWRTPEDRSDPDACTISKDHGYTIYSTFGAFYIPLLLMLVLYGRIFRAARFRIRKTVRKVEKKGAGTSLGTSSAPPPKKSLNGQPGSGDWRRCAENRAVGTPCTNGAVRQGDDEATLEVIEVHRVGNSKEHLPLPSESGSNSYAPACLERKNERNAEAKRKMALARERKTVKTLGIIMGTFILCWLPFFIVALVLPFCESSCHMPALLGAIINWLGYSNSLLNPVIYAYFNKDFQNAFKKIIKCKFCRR
Method: 1-Measurement of the affinity of the compounds of the invention for the 5-HT1A receptors
The study of binding to the 5-HT1A receptor was carried out as described by Sleight and Peroutka (Naunyn-Schmiedeberg's Arch. Pharmaco. 1991, 343, 106-16). For these experiments, rat cerebral cortices are used. After thawing the brain in 50 mmol Tris-HCl buffer, pH=7.40 at 25° C., the cerebral cortex is removed and homogenized in 20 volumes of buffer maintained at 4° C. The homogenate is centrifuged at 39,000 g for 10 minutes, the centrifugation pellet is suspended in the same volume of buffer and again centrifuged. After suspending again under the same conditions, the homogenate is incubated for 10 minutes at 37° C. and then centrifuged again. The final pellet is suspended in cold 50 mmol Tris-HCl reaction buffer, pH=7.40 at 25° C. containing 10 mmol of pargyline, 4 mmol of CaCl2 and 0.10% of ascorbic acid. The final concentration of tissue in the incubation medium is 10 mg/tube.
Nonspecific binding is defined using 10 mmol of 5-HT. The reaction tubes are incubated at 23° C. for 30 minutes and then their content is rapidly filtered under vacuum on Whatman GF/B filters, the tubes are rinsed twice with 5 ml of 50 mmol Tris-HCl buffer, pH=7.4 at 25° C. The radioactivity collected on the filter is analyzed by liquid scintillation by adding 4 ml of scintillation fluid (Emulsifier Safe, Packard). All the experiments are carried out in triplicate.
as §1

5-HT1A receptors [3] = biological target: T2, 5-HT1A receptors; test: In vivo 5-HT1A agonist activity: lower lip retraction (LLR) in rats after oral administration; design: Sprague Dawley male rats; from tissue; host or cells: whole animal, Sprague Dawley male rats (central nervous system); species or system rat (Sprague Dawley male); details: 1 h
Text: 3-Evaluation of the agonist activity of the 5-HT1A receptors of the compounds of the invention in vivo
Sprague Dawley male rats (ICO: OFAD [IOPS], Iffa Credo, France) weighing 160-180 g on their arrival and 180-200 g at the beginning of the tests are used. The animals are quarantined for 4 to 8 days with free access to standard laboratory food before their use in the experiments. Animals are housed individually in plastic cages on a support, (28 cm×21 cm×18 cm) with a floor having a wire mesh covering (RC Iffa Credo), 24 hours before the tests. Water filtered on 0.22 μm is available ad libitum by means of an automatic dispenser. The quarantine area and the experimentation laboratory are air-conditioned (temperature: 22±1° C.; relative humidity: 55±5%) and illuminated from 07:00 to 19:00. All the rats are treated in accordance with laboratory animal ethics (Guide for the Care and Use of Laboratory Animals, U.S. Department of Agriculture. Public Health Service. National Institutes of Health publication No. 85-23, Revised 1985), and the protocol (No. 15) is carried out in accordance with the recommendations of the local ethics committee on animal research.
The methods used are essentially identical to those described previously (Drug. Dev. Res. 1992, 26, 21-48; Eur. J. Pharmacol. 1995, 281, 219-28).
The behavior of the animal is observed for a period of 10 minutes each, centred on t60 minutes, after administration by the oral route. Four animals are observed individually during the 10 minute period (from t55 to t65); the 4 rats are observed in turn, every 15 seconds, duration of observation 10 seconds per animal. During each of these observation periods, the presence (1) or absence (0) of lower lip retraction (LLR) in the animal is noted. […] This cycle is repeated 10 times over a period of 10 minutes; thus, the frequency of a behavior may vary from 0 to 10 for each observation period. Each day, two animals from each group receive the same dose of the same product.
The products are dissolved in distilled water or suspended in an aqueous solution of Tween 80 (2 drops/10 ml of distilled water). The products are administered in a volume of 10 ml/kg and the doses are expressed in basal weight. The order of administration of the products and of the doses is randomized.

[4] = mean of at least 3 experiments, rat striatum, (^3 H)YM-09151-2, read-out: pKi D2 (converted)
[5] = read-out: LLR p.o (60 minutes) ED50, oral, observed t55 to t65 minutes
[6] = mean of at least 3 experiments, rat striatum, (^3 H)YM-09151-2
[7] = po, read-out: LLR p.o (60 minutes) ED50

| Ki [1, 4] [nM] | pKi 5-HT1A (5-HT1A receptors [2]) | 5-HT1A /D2 Selectivity (5-HT1A receptors [2]) | ED50 (5-HT1A receptors [3]; [5]) [mg/kg] | pKi D2 [1, 6] | Ki (5-HT1A receptors [2]; read-out: pKi 5-HT1A (converted)) [nM] | Structure (SMILES) | Ki [1] [nM] | ED50 (5-HT1A receptors [3]; [7]) [mg/kg] | affinity for the 5-HT1A receptors (in words) (5-HT1A receptors [2]) |
| --- | --- | --- | --- | --- | --- | --- | --- | --- | --- |
| 603 | 9.50 | 1906 | 0.08 |  |  | Cc1ccc(CNCC2(F)CCN(C(=O)c3ccc(F)c(Cl)c3)CC2)nc1N(C)C [I-61, (3-chloro-4-fluoro-phenyl)-(4-fluoro-4-{[(5-methyl-6-dimethylaminopyridin-2-yl-methyl)amino]-methyl}piperidin-1-yl)methanone] |  |  |  |
|  | 9.55 | 7942 | 0.31 | 5.65 |  | O=C(c1ccc(F)c(Cl)c1)N1CCC(F)(CNCc2cccc(-c3ccco3)n2)CC1 [I-32, (3-chloro-4-fluorophenyl)-(4-fluoro-4-{[(6-furan-2-yl-pyridin-2-yl-methyl)amino]methyl}-piperidin-1-yl)methanone] |  |  |  |
| 1020 |  | 7414 | 0.08 |  | 0.138 | O=C(c1ccc(F)c(Cl)c1)N1CCC(F)(CNCc2cccc(N3CCC3)n2)CC1 [I-56] |  |  |  |
| 234 | 9.73 | 1259 | 0.31 |  |  | CCNc1cccc(CNCC2(F)CCN(C(=O)c3ccc(F)c(Cl)c3)CC2)n1 [I-58] |  |  |  |
| 1020 | 9.69 | 5011 | 0.31 |  |  | CNc1cccc(CNCC2(F)CCN(C(=O)c3ccc(F)c(Cl)c3)CC2)n1 [I-59] |  |  |  |
|  | 9.61 | 1349 | 0.31 | 6.48 |  | CN(C)c1cccc(CNCC2(F)CCN(C(=O)c3ccc(Cl)c(Cl)c3)CC2)n1 [I-14, (3,4-dichlorophenyl)-(4-fluoro-4-{[(6-dimethylaminopyridin-2-yl-methyl)amino]methyl}piperidin-1-yl)-methanone] |  |  |  |
| 7590 | 9.34 | 16594 | 0.31 |  |  | O=C(c1ccc(F)c(Cl)c1)N1CCC(F)(CNCc2cccc(-c3cc[nH]n3)n2)CC1 [I-62] |  |  |  |
| > 10000 | 9.24 | > 10000 | 0.31 |  |  | Cc1ccc(CNCC2(F)CCN(C(=O)c3ccc(Cl)c(Cl)c3)CC2)nc1 [I-65] |  |  |  |

The next lines start with the compound.

| Structure (SMILES) | Ki [1, 4] [nM] | pKi 5-HT1A (5-HT1A receptors [2]) | 5-HT1A /D2 Selectivity (5-HT1A receptors [2]) | ED50 (5-HT1A receptors [3]; [5]) [mg/kg] | pKi D2 [1, 6] | Ki (5-HT1A receptors [2]; read-out: pKi 5-HT1A (converted)) [nM] | Ki [1] [nM] | ED50 (5-HT1A receptors [3]; [7]) [mg/kg] | affinity for the 5-HT1A receptors (in words) (5-HT1A receptors [2]) |
| --- | --- | --- | --- | --- | --- | --- | --- | --- | --- |
| CN(C)c1cccc(CNCC2(F)CCN(C(=O)c3ccc(F)c(Cl)c3)CC2)n1 [I-13, (3-chloro-4-fluoro-phenyl)-(4-fluoro-4-{[(6-dimethylaminopyridin-2-yl-methyl)amino]methyl}-piperidin-1-yl)methanone] |  | 9.92 | 2291 | 0.31 | 6.56 |  |  |  |  |
| CNc1cccc(CNCC2(F)CCN(C(=O)c3ccc(Cl)c(Cl)c3)CC2)n1 [I-11] |  | 9.67 | 1862 | 0.31 | 6.40 |  |  |  |  |
| CNc1nc(CNCC2(F)CCN(C(=O)c3ccc(F)c(Cl)c3)CC2)ccc1C [I-55, (3-chloro-4-fluoro-phenyl)-(4-fluoro-4-{[(5-methyl-6-methylaminopyridin-2-ylmethyl)amino]-methyl}piperidin-1-yl)methanone] |  | 10.12 | 16982 |  |  |  | 1290 | 0.08 |  |
| O=C1CC2(CCCC2)CC(=O)N1CCCCN1CCN(c2ncccn2)CC1 [Buspirone, reference compound] |  |  |  | 20 |  |  |  |  | high affinity for the 5-HT1A receptors |
| CCCN(CCC)C1CCc2cccc(O)c2C1 (stereo not shown) [8-OH-DPAT, 7-dipropylamino-5,6,7,8-tetrahydronaphthalen-1-ol, reference compound] |  |  |  |  | 6.26 |  |  | 5 | high affinity for the 5-HT1A receptors |
